Measured values reported in ChEMBL document CHEMBL1149543, “Discovery of inhibitors of the pentein superfamily protein dimethylarginine dimethylaminohydrolase (DDAH), by virtual screening and hit analysis” (Bioorg Med Chem Lett, 2007).

Experiment: Inhibition of Pseudomonas aeruginosa DDAH

Q: With `COc1ccc(N2C(=O)/C(=C/c3c[nH]c4ccccc34)C(=O)NC2=S)cc1` as the compound, how does the IC50 read?
A: Its IC50 is 2 µM.

Q: For `O=C(Cn1cc(/C=C2\C(=O)NC(=S)N(c3ccccc3)C2=O)c2ccccc21)NCc1ccco1`, which IC50 is on record?
A: Its IC50 is 16.9 µM.

Q: Which IC50 does the source give for `O=C(Cn1cc(C=C2C(=O)NC(=S)NC2=O)c2ccccc21)NCc1ccco1` here?
A: The IC50 was 6.4 µM.
